Test results published in ChEMBL document CHEMBL1144340, “QSAR for phospholipase A2 inhibitions by 1-acyloxy-3-N-n-octylcarbamyl-benzenes” (Bioorg Med Chem Lett, 2005).

The compounds below were run against T1, Acidic phospholipase A2 CM-I (Naja mossambica, UniProt P00602) (assay: Inhibitory activity against phospholipase A2).
T1 sequence (P00602 whole entry): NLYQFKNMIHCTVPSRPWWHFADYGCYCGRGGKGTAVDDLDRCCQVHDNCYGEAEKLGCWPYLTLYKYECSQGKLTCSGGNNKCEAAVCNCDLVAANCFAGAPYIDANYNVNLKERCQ

Row | SMILES | Ki [µM]
1 | CCCCCCCCNC(=O)Oc1cccc(OC(=O)Cc2ccccc2)c1 | 73
2 | CCCCCCCCNC(=O)Oc1cccc(OC(=O)c2ccccc2)c1 | 95
3 | CCCCCCCCNC(=O)Oc1cccc(OC(=O)C(c2ccccc2)(c2ccccc2)c2ccccc2)c1 | 38
4 | CCCCCCCCNC(=O)Oc1cccc(OC(=O)CCCCCCC)c1 | 27
5 | CCCCCCCCNC(=O)Oc1cccc(OC(=O)CCCC)c1 | 75
6 | CCCCCCCCNC(=O)Oc1cccc(OC(=O)C(C)(C)C)c1 | 55
7 | CCCCCCCCCCCCCCCC(=O)Oc1cccc(OC(=O)NCCCCCCCC)c1 | 9.6
8 | CCCCCCCCNC(=O)Oc1cccc(OC(=O)C(Cl)(Cl)Cl)c1 | 120
9 | CCCCCCCCNC(=O)Oc1cccc(OC(C)=O)c1 | 98
